Data: the NIST ThermoML archive (doi:10.1021/je5010214)
± gives the expanded uncertainty stated by the source.

Conditions: Liquid, Vibrating tube method

CCCCO [butan-1-ol]
Conditions	mass density [kg/m3]
343.15 K, 44927 kPa	804.186 ± 0.9
343.15 K, 47908 kPa	806.033 ± 0.91
343.15 K, 50059 kPa	807.349 ± 0.91
343.15 K, 52026 kPa	808.534 ± 0.92
343.15 K, 59944 kPa	813.181 ± 0.94
343.15 K, 61967 kPa	814.212 ± 0.94
343.15 K, 65070 kPa	815.911 ± 0.95
343.15 K, 66059 kPa	816.518 ± 0.96
343.16 K, 34034 kPa	797.101 ± 0.87
343.16 K, 54919 kPa	810.24 ± 0.93
343.16 K, 57986 kPa	812.021 ± 0.93
348.15 K, 88.8 kPa	765.578 ± 0.81
348.15 K, 462.2 kPa	765.945 ± 0.81
348.15 K, 859.8 kPa	766.355 ± 0.81
348.15 K, 974.2 kPa	766.465 ± 0.81
348.15 K, 1974.9 kPa	767.461 ± 0.81
348.15 K, 3051.1 kPa	768.513 ± 0.81
348.15 K, 5094 kPa	770.529 ± 0.81
348.15 K, 10025 kPa	775.087 ± 0.82
348.15 K, 14792 kPa	779.258 ± 0.83
348.15 K, 20111 kPa	783.649 ± 0.84
348.15 K, 22163 kPa	785.27 ± 0.85
348.15 K, 28080 kPa	789.8 ± 0.86
348.15 K, 30149 kPa	791.333 ± 0.86
348.15 K, 32161 kPa	792.797 ± 0.87
348.15 K, 33959 kPa	793.985 ± 0.87
348.15 K, 35045 kPa	794.751 ± 0.88
348.15 K, 37937 kPa	796.729 ± 0.88
348.15 K, 40026 kPa	798.192 ± 0.89
348.15 K, 42066 kPa	799.57 ± 0.89
348.15 K, 47915 kPa	803.304 ± 0.91
348.15 K, 49950 kPa	804.611 ± 0.92
348.15 K, 52167 kPa	805.991 ± 0.92
348.15 K, 55022 kPa	807.759 ± 0.93
348.15 K, 57945 kPa	809.531 ± 0.94
348.15 K, 60030 kPa	810.761 ± 0.94
348.15 K, 64942 kPa	813.608 ± 0.96
348.15 K, 66153 kPa	814.319 ± 0.96
348.16 K, 291.7 kPa	765.77 ± 0.81
348.16 K, 7050.2 kPa	772.352 ± 0.82
348.16 K, 9003.2 kPa	774.145 ± 0.82
348.16 K, 12187 kPa	777.001 ± 0.83
348.16 K, 17899 kPa	781.843 ± 0.84
348.16 K, 25100 kPa	787.55 ± 0.85
348.16 K, 32942 kPa	793.364 ± 0.87
348.16 K, 45051 kPa	801.465 ± 0.9
348.16 K, 62063 kPa	811.961 ± 0.95
353.15 K, 86.2 kPa	760.995 ± 0.81
353.15 K, 336 kPa	761.273 ± 0.81
353.15 K, 572.6 kPa	761.533 ± 0.81
353.15 K, 926 kPa	761.914 ± 0.81
353.15 K, 1016.4 kPa	762.008 ± 0.81
353.15 K, 2992.1 kPa	764.106 ± 0.81
353.15 K, 4963.9 kPa	766.051 ± 0.81
353.15 K, 7000.9 kPa	768.126 ± 0.82
353.15 K, 9062.3 kPa	770.136 ± 0.82
353.15 K, 10005 kPa	771.015 ± 0.82
353.15 K, 12128 kPa	772.98 ± 0.83
353.15 K, 14954 kPa	775.544 ± 0.83
353.15 K, 17977 kPa	778.173 ± 0.84
353.15 K, 19937 kPa	779.792 ± 0.84
353.15 K, 21894 kPa	781.405 ± 0.85
353.15 K, 24908 kPa	783.869 ± 0.85
353.15 K, 27850 kPa	786.199 ± 0.86
353.15 K, 29936 kPa	787.797 ± 0.86
353.15 K, 31876 kPa	789.263 ± 0.87
353.15 K, 32961 kPa	790.048 ± 0.87
353.15 K, 34945 kPa	791.423 ± 0.88
353.15 K, 37913 kPa	793.571 ± 0.89
353.15 K, 40143 kPa	795.172 ± 0.89
353.15 K, 42067 kPa	796.559 ± 0.9
353.15 K, 45002 kPa	798.55 ± 0.9
353.15 K, 48029 kPa	800.525 ± 0.91
353.15 K, 50145 kPa	801.944 ± 0.92
353.15 K, 52082 kPa	803.184 ± 0.92
353.15 K, 55132 kPa	805.077 ± 0.93
353.15 K, 57980 kPa	806.879 ± 0.94
353.15 K, 60098 kPa	808.146 ± 0.95
